In data set [1] the test system is Acanthamoeba castellanii. Briefly: Amoebicidal assay. It counts as cell-based, Acanthamoeba castellanii genotype T4 (ATCC 50492). On the procedure:
Acanthamoeba castellanii genotype T4 (ATCC 50492) was cultivated in 10 mL growth medium of peptone yeast glucose (PYG) in tissue flasks (Baig, et al., 2021; Anwar, et al., 2019). The growth medium, PYG, consists of 0.75% proteose peptone, 0.75% yeast extract, and 1.5% glucose. Next, the amoebae were kept in tissue flasks and incubated at 30 °C.
To determine the compounds’ antiamoebic effects, amoebicidal assays were conducted. The 5 × 10^5 amoebae were placed in a 24-well plate and brought to a final volume of 500 µL. […] The 24-well plate was then placed in a 30 °C incubator for 24 h. Positive and negative controls were added to the assay in order to ensure reliable results. Serving as the negative control was the amoebae alone, with RPMI [4]. Meanwhile, amoebae, along with 0.25% sodium dodecyl sulphate (SDS), were used as the positive control. Through the addition of 0.1% methylene blue, live and dead amoebae were distinguished. Additionally, significant compounds were identified by conducting a Student’s t-test with a two-tailed distribution. Furthermore, the MIC50 values of three compounds were determined by using concentrations of […], 75, and 100 µM.

The subject of data set [2] is Acanthamoeba castellanii. Briefly: Encystation assay. It counts as cell-based. The settings on record: 16% glucose, 48 h, negative control 100% cysts. On the procedure: The effects of the compounds on amoeba encystation were determined through the conduction of encystation assays. Briefly, 1 × 10^6 trophozoites were incubated with the compounds in a final concentration of 16% filter-sterilized glucose. Following a 48 h incubation period, 0.1% SDS was added per well for 20 min. The cysts were then counted by using a haemocytometer. To ensure accuracy, Acanthamoeba castellanii was cultured in 16% glucose, serving as the negative control.

The subject of data set [3] is Acanthamoeba castellanii cysts. Briefly: Excystation assay. It counts as cell-based. The settings on record: cysts in PYG, negative control 100%, read-out: viable trophozoites (re-emergence of cysts to trophozoites). On the procedure: Amoeba culture was suspended in 3 mL phosphate-buffered saline (PBS) and placed on non-nutrient bacteriological agar plates to allow for the growing of Acanthamoeba castellanii cysts. After two weeks, PBS was applied to plates containing amoeba cysts, which were then scraped off. The amoebae were centrifuged at 3000× g for 10 min, and the resulting pellet was resuspended in RPMI. The 5 × 10^5 cysts were then incubated in PYG, along with 50 µM of the compounds. To ensure accuracy, amoeba cysts in PYG alone were considered as the negative control, whereas amoeba cysts in RPMI alone were taken as the positive control, as the cysts would not be able to revert back to trophozoites. The amoeba trophozoites were then numbered by using a haemocytometer.

The next data set concerns HeLa cells. Briefly: Cytotoxicity assay (LDH release). It counts as cell-based, human. To be noted: 50 µM, 24 h, LDH release, Triton X-100 = 100%. How it is done: HeLa cells were acquired from American Type Culture Collection (ATCC) of identification ATCC CCL-2, Singapore. The cells are utilized to conduct cytotoxicity and cytopathogenicity assays. Through their cultivation in complete media, the cells were grown, and then they were placed in a 95% humidifying incubator at 37 °C and 5% CO2. Complete medium comprises Roswell Park Memorial Media (RPMI), 1% penicillin–streptomycin, 1% minimum essential medium amino acids, 1% L-glutamine, and 10% fetal bovine serum (FBS). To determine the toxicity of the compounds against human HeLa cells, cytotoxicity assays were conducted. In short, HeLa cells were cultured in 96-well plates and treated with the compounds. The plate was then placed in a humidifying incubator with 95% humidity and 5% CO2, at 37 °C, for 24 h. After 24 h, the supernatant was collected, and the cytotoxicity of the compounds was determined through a cytotoxicity detection kit that measured the quantity of lactate dehydrogenase (LDH) release. Accurate results were ensured through the addition of positive and negative controls. Untreated HeLa cells served as the negative control, whereas HeLa cells treated with 1% Triton X-100 served as the positive control. Finally, the cytotoxic properties were numerically determined by following the necessary calculations: (absorbance of media from cells treated with the drugs—absorbance of media from cells of negative control)/(absorbance of media from cells of positive control—absorbance of media from cells of negative control) × 100 [19].
For orientation: Release of lactate dehydrogenase indicates damage to the cell membrane.

The test system of data set [4] is Acanthamoeba castellanii on HeLa cell monolayers. Briefly: Cytopathogenicity assay (amoeba-mediated host-cell death). The settings on record: amoebae pretreated with 50 µM for 2 h, then 24 h on HeLa cells, negative control 100%. It counts as cell-based. How it is done:
Amoeba-mediated host-cell death was determined by treating 5 × 10^5 amoebae with 50 µM of compounds. The amoeba-containing plate was then placed in the incubator for 2 h at 30 °C. Following the 2 h incubation period, the treated amoebae were put on confluent HeLa cell monolayers. The plate containing the treated amoebae and HeLa cells was incubated for 24 h. Progressing the incubation period, the supernatant was collected, and the cytotoxicity was determined. Accurate results were ensured through the addition of negative and positive controls. The untreated amoebae, alone, on the cells served as the negative control, while the cells treated with Triton X-100 served as the positive control.
For orientation: Protection from cytopathic effect is a common read-out in antiviral testing.

Another data set deals with DNA. Briefly: Biophysical analysis of binding with DNA. To be noted: in words.
On the set-up of data set [5]: method as in PMID 35600289. The settings on record: cited from earlier work.
Details of data set [6]: method as in PMID 35600289. The settings on record: pH of 7; cited from earlier work.

On to `CN(C)CCCNC(=O)c1cc(NC(=O)c2cc(NC(=O)c3cc(NC(=O)c4nccn4C)cn3C)cn2C)cn1C` [MGB5, N-(5-((5-((5-((3-(dimethylamino)propyl)carbamoyl)-1-methyl-1H-pyrrol-3-yl)carbamoyl)-1-methyl-1H-pyrrol-3-yl)carbamoyl)-1-methyl-1H-pyrrol-3-yl)-1-methyl-1H-imidazole-2-carboxamide], for which the viability at 50 µM in the data set with Acanthamoeba castellanii [1] (Acanthamoeba castellanii, 50 µM, 24 h, negative control 100%, read-out: amoeba viability) turned out to be 98.4%; in data set [3], 80.8%. For the same compound, the “activity against Acanthamoeba castellanii” value with Acanthamoeba castellanii [1] (in words) was “no activity”. In the data set with Acanthamoeba castellanii [2], this compound displayed a cysts present of 48.3%. Moreover, the “cytotoxicity against human HeLa cells” value with HeLa cells was determined as 10.9%. Further, in data set [4], the “amoeba-mediated host-cell death (cytotoxic activity due to amoeba)” value worked out at 57.8%. For the same compound, the “ability to bind with DNA” value in the data set with DNA is “bind with DNA”.
Consider `Cn1cc(NC(=O)c2cc(NC(=O)c3ccc(/C=C/c4cnc5ccccc5c4)cc3)cn2C)cc1C(=O)NCCN1CCOCC1` [MGB-BP-3], for which the pKa – broadly, the negative logarithm of the acid dissociation constant – in data set [5] is 5.26. The solubility in water entry in data set [6] is “insoluble in water”.

The record behind these values is publication PMC9312114, “Synthesis and Evaluation of Novel DNA Minor Groove Binders as Antiamoebic Agents” (Antibiotics, 2022).
